The text below walks through data of US11001590B2, “Pyrazolopyrimidine derivatives” (BAYER ANIMAL HEALTH GMBH, priority 2016, dated 2021).

SMILES strings stand for the structures.

The subject of one data set is Nippostrongylus brasiliensis. The data set can be described thus: In vitro assay 2: Nippostrongylus brasiliensis (NIPOBR), acetylcholine esterase readout. Conditions: adult worms, 10 μg/ml (10 ppm), read-out: activity (reduction of AChE compared to negative control). As to the method:
In Vitro Assay 2: Nippostronqylus Brasiliensis (NIPOBR)
Adult Nippostrongylus brasiliensis were washed with saline buffer containing 100 U/ml penicillin, 0.1 mg/ml streptomycin and 2.5 μg/ml amphotericin B. Test compounds were dissolved in DMSO and worms were incubated in medium in a final concentration of 10 μg/ml (10 ppm) respectively 1 μg/ml (1 ppm). An aliquot of the medium was used to determine the acetylcholine esterase activity in comparison to a negative control. The principle of measuring acetylcholine esterase as readout for anthelmintic activity was described in Rapson et al (1986) and Rapson et al (1987).
With `Cc1nn2c(C3CC3)c(C(=O)N[C@H]3CCOc4ccccc43)cnc2c1-c1c(Cl)cccc1Cl` [Example 467], the inhibition at 10 µg/mL was above 80%.
The same measure, in the same setting: the result for `Cc1nn2c(C(C)C)c(C(=O)N[C@H]3CCOc4ccccc43)cnc2c1-c1ccc(F)c(Cl)c1` [Example 186] reads above 80%.
On the same count and under the same terms, next, `Cc1nn2c(C(C)C)c(C(=O)N[C@H]3CCOc4ccccc43)cnc2c1-c1cccc(Cl)c1Cl` [Example 170]: above 80%.
Still for that read-out and setting: the result for `COc1cc(Cl)cc(-c2c(C)nn3c(C(C)C)c(C(=O)N[C@H]4CCOc5ccccc54)cnc23)c1` [Example 403] reads above 80%; that for `Cc1nn2c(C3CC3)c(C(=O)N[C@H]3CCOc4ccccc43)cnc2c1-c1cccc(N(C)C)c1` [Example 453], above 80%.
For `COc1ccc(F)c(-c2c(C)nn3c(C(C)C)c(C(=O)N[C@H]4CCOc5ccccc54)cnc23)c1F` [Example 232], the inhibition at 10 µg/mL was above 80%.
On the same count and under the same terms, the result for `Cc1nn2c(C3CC3)c(C(=O)N[C@H]3CCc4ccccc43)cnc2c1-c1c(F)cccc1Cl` [Example 442] reads above 80%.
With `Cc1nn2c(C(C)C)c(C(=O)N[C@H]3CCOc4ccccc43)cnc2c1-c1c(F)cccc1Cl` [Example 130], the inhibition at 10 µg/mL is above 80%.
On the same count and under the same terms, the result for `Cc1nn2c(C(C)C)c(C(=O)N[C@H]3CCOc4ccccc43)cnc2c1-c1ccc(F)c(Cl)c1F` [Example 213] reads above 80%; that for `Cc1nn2c(C(C)C)c(C(=O)N[C@H]3CCc4ccccc43)cnc2c1-c1cc(Cl)cc(C(F)(F)F)c1` [Example 317], above 80%.

A further data set concerns Dirofilaria immitis microfilariae. The data set can be described thus: In vitro assay 3: Dirofilaria immitis microfilariae (DIROIM L1), motility. To be noted: 72 h, reduction of motility vs negative control, 72 h incubation.
Turning to `Cc1nn2c(C(C)C)c(C(=O)N[C@H]3CCc4ccccc43)cnc2c1-c1cccc(N(C)C)c1` [Example 299], the EC50 – broadly, the concentration that produces a half-maximal response – is below 0.1 µg/mL.
On to `Cc1nn2c(C(C)C)c(C(=O)N[C@H]3CCOc4ccccc43)cnc2c1-c1cccc(C(F)(F)F)c1` [Example 6], for which the EC50 is below 1 µg/mL.
On the same count and under the same terms, next, `Cc1nn2c(C3CC3)c(C(=O)N[C@H]3CCOc4ccccc43)cnc2c1-c1c(Cl)cccc1Cl` [Example 467]: below 0.1 µg/mL.
Molecule `Cc1nn2c(C(C)C)c(C(=O)N[C@H]3CCOc4ccccc43)cnc2c1-c1ccc(F)c(Cl)c1` [Example 186] returned an EC50 below 0.1 µg/mL.
Turning to `Cc1nn2c(C(C)C)c(C(=O)N[C@H]3CCOc4ccccc43)cnc2c1-c1cccc(Cl)c1Cl` [Example 170], the EC50 is below 0.1 µg/mL.
Same read-out and setting: next, `COc1cc(Cl)cc(-c2c(C)nn3c(C(C)C)c(C(=O)N[C@H]4CCOc5ccccc54)cnc23)c1` [Example 403]: below 0.1 µg/mL; `Cc1nn2c(C3CC3)c(C(=O)N[C@H]3CCOc4ccccc43)cnc2c1-c1cccc(N(C)C)c1` [Example 453]: below 1 µg/mL.
The same measure, in the same setting: the result for `COc1ccc(F)c(-c2c(C)nn3c(C(C)C)c(C(=O)N[C@H]4CCOc5ccccc54)cnc23)c1F` [Example 232] reads below 1 µg/mL; that for `Cc1nn2c(C3CC3)c(C(=O)N[C@H]3CCc4ccccc43)cnc2c1-c1c(F)cccc1Cl` [Example 442], below 0.1 µg/mL; that for `Cc1nn2c(C(C)C)c(C(=O)N[C@H]3CCOc4ccccc43)cnc2c1-c1c(F)cccc1Cl` [Example 130], below 0.1 µg/mL.
On the same count and under the same terms, next, `Cc1nn2c(C(C)C)c(C(=O)N[C@H]3CCOc4ccccc43)cnc2c1-c1ccc(F)c(Cl)c1F` [Example 213]: below 0.1 µg/mL; `Cc1nn2c(C(C)C)c(C(=O)N[C@H]3CCc4ccccc43)cnc2c1-c1cc(Cl)cc(C(F)(F)F)c1` [Example 317]: below 1 µg/mL.

The test system of another data set is Dirofilaria immitis third-stage larvae. The data set can be described thus: In vitro assay 4: Dirofilaria immitis (DIROIM L4), motility of larvae. Conditions: 72 h.
The molecule `Cc1nn2c(C3CC3)c(C(=O)N[C@H]3CCOc4ccccc43)cnc2c1-c1c(Cl)cccc1Cl` [Example 467] displayed an EC50 below 0.1 µg/mL.
Still for that read-out and setting: next, `Cc1nn2c(C(C)C)c(C(=O)N[C@H]3CCOc4ccccc43)cnc2c1-c1ccc(F)c(Cl)c1` [Example 186]: below 0.1 µg/mL; `Cc1nn2c(C(C)C)c(C(=O)N[C@H]3CCOc4ccccc43)cnc2c1-c1cccc(Cl)c1Cl` [Example 170]: below 0.1 µg/mL.
The same measure, in the same setting: next, `COc1cc(Cl)cc(-c2c(C)nn3c(C(C)C)c(C(=O)N[C@H]4CCOc5ccccc54)cnc23)c1` [Example 403]: below 0.1 µg/mL; `COc1ccc(F)c(-c2c(C)nn3c(C(C)C)c(C(=O)N[C@H]4CCOc5ccccc54)cnc23)c1F` [Example 232]: below 0.1 µg/mL; `Cc1nn2c(C3CC3)c(C(=O)N[C@H]3CCc4ccccc43)cnc2c1-c1c(F)cccc1Cl` [Example 442]: below 0.1 µg/mL.
The same measure, in the same setting: the result for `Cc1nn2c(C(C)C)c(C(=O)N[C@H]3CCOc4ccccc43)cnc2c1-c1c(F)cccc1Cl` [Example 130] reads below 0.1 µg/mL; that for `Cc1nn2c(C(C)C)c(C(=O)N[C@H]3CCOc4ccccc43)cnc2c1-c1ccc(F)c(Cl)c1F` [Example 213], below 0.1 µg/mL; that for `Cc1nn2c(C(C)C)c(C(=O)N[C@H]3CCc4ccccc43)cnc2c1-c1cc(Cl)cc(C(F)(F)F)c1` [Example 317], below 0.1 µg/mL.

Another data set deals with Cooperia curticei. Put plainly: In vitro assay 5: Cooperia curticei (COOPCU), larval mortality. Conditions: 120 h, read-out: activity (percentage of larval mortality).
Description: In Vitro Assay 5: Cooperia curticei (COOPCU)
Solvent: Dimethyl Sulfoxide
Approximately 40 nematode larvae (Cooperia curticei) are transferred into a test tube containing the compound solution.
After 5 days percentage of larval mortality is recorded. 100% efficacy means all larvae are killed; 0% efficacy means no larvae are killed.
For `Cc1nn2c(C(C)C)c(C(=O)N[C@H]3CCc4ccccc43)cnc2c1-c1cccc(N(C)C)c1` [Example 299], the mortality (in general, the percentage killed) at 20 ppm was determined as 80%.
Still for that read-out and setting: next, `Cc1nn2c(C(C)C)c(C(=O)N[C@H]3CCOc4ccccc43)cnc2c1-c1cccc(C(F)(F)F)c1` [Example 6]: 80%; `Cc1nn2c(C3CC3)c(C(=O)N[C@H]3CCOc4ccccc43)cnc2c1-c1cccc(N(C)C)c1` [Example 453]: 80%.
Still for that read-out and setting: the result for `COc1ccc(F)c(-c2c(C)nn3c(C(C)C)c(C(=O)N[C@H]4CCOc5ccccc54)cnc23)c1F` [Example 232] reads 80%.

The subject of a further data set is Litomosoides sigmodontis third-stage larvae. The data set can be described thus: In vitro assay 7: Litomosoides sigmodontis L3 (LTMOSI), motility. Conditions: 72 h, reduction of motility vs negative control, 72 h incubation.
As to `Cc1nn2c(C(C)C)c(C(=O)N[C@H]3CCOc4ccccc43)cnc2c1-c1cccc(C(F)(F)F)c1` [Example 6], the EC50 is below 1 µg/mL.
Molecule `Cc1nn2c(C3CC3)c(C(=O)N[C@H]3CCOc4ccccc43)cnc2c1-c1c(Cl)cccc1Cl` [Example 467] showed an EC50 below 0.1 µg/mL.
In turn, `Cc1nn2c(C(C)C)c(C(=O)N[C@H]3CCOc4ccccc43)cnc2c1-c1ccc(F)c(Cl)c1` [Example 186] returned an EC50 below 0.1 µg/mL.
Turning to `Cc1nn2c(C(C)C)c(C(=O)N[C@H]3CCOc4ccccc43)cnc2c1-c1cccc(Cl)c1Cl` [Example 170], the EC50 was below 0.1 µg/mL.
The same measure, in the same setting: next, `COc1cc(Cl)cc(-c2c(C)nn3c(C(C)C)c(C(=O)N[C@H]4CCOc5ccccc54)cnc23)c1` [Example 403]: below 0.1 µg/mL; `COc1ccc(F)c(-c2c(C)nn3c(C(C)C)c(C(=O)N[C@H]4CCOc5ccccc54)cnc23)c1F` [Example 232]: below 0.1 µg/mL.
Same read-out and setting: the result for `Cc1nn2c(C3CC3)c(C(=O)N[C@H]3CCc4ccccc43)cnc2c1-c1c(F)cccc1Cl` [Example 442] reads below 0.1 µg/mL; that for `Cc1nn2c(C(C)C)c(C(=O)N[C@H]3CCOc4ccccc43)cnc2c1-c1c(F)cccc1Cl` [Example 130], below 0.1 µg/mL; that for `Cc1nn2c(C(C)C)c(C(=O)N[C@H]3CCOc4ccccc43)cnc2c1-c1ccc(F)c(Cl)c1F` [Example 213], below 0.1 µg/mL.
Still for that read-out and setting: the result for `Cc1nn2c(C(C)C)c(C(=O)N[C@H]3CCc4ccccc43)cnc2c1-c1cc(Cl)cc(C(F)(F)F)c1` [Example 317] reads below 0.1 µg/mL.

Tested on in a further data set: not listed separately
Put plainly: log P by HPLC on reversed phase columns (Method L0; [a] acidic, [b] neutral range).
Conditions: not given
As for `Cc1nn2c(C(C)C)c(C(=O)N[C@H]3CCc4ccccc43)cnc2c1-c1cccc(N(C)C)c1` [Example 299], the chromatographic logP (commonly lipophilicity estimated from chromatographic retention) was 3.9.
`Cc1nn2c(C(C)C)c(C(=O)N[C@H]3CCOc4ccccc43)cnc2c1-c1cccc(C(F)(F)F)c1` [Example 6] displayed a chromatographic logP of 5.03.
The same measure, in the same setting: the result for `Cc1nn2c(C3CC3)c(C(=O)N[C@H]3CCOc4ccccc43)cnc2c1-c1c(Cl)cccc1Cl` [Example 467] reads 3.88; that for `Cc1nn2c(C(C)C)c(C(=O)N[C@H]3CCOc4ccccc43)cnc2c1-c1ccc(F)c(Cl)c1` [Example 186], 5.01; that for `Cc1nn2c(C(C)C)c(C(=O)N[C@H]3CCOc4ccccc43)cnc2c1-c1cccc(Cl)c1Cl` [Example 170], 4.85.
On the same count and under the same terms, next, `COc1cc(Cl)cc(-c2c(C)nn3c(C(C)C)c(C(=O)N[C@H]4CCOc5ccccc54)cnc23)c1` [Example 403]: 4.96; `Cc1nn2c(C3CC3)c(C(=O)N[C@H]3CCOc4ccccc43)cnc2c1-c1cccc(N(C)C)c1` [Example 453]: 2.72; `COc1ccc(F)c(-c2c(C)nn3c(C(C)C)c(C(=O)N[C@H]4CCOc5ccccc54)cnc23)c1F` [Example 232]: 4.04.
Still for that read-out and setting: the result for `Cc1nn2c(C3CC3)c(C(=O)N[C@H]3CCc4ccccc43)cnc2c1-c1c(F)cccc1Cl` [Example 442] reads 3.89; that for `Cc1nn2c(C(C)C)c(C(=O)N[C@H]3CCOc4ccccc43)cnc2c1-c1c(F)cccc1Cl` [Example 130], 4.44.
In turn, `Cc1nn2c(C(C)C)c(C(=O)N[C@H]3CCOc4ccccc43)cnc2c1-c1ccc(F)c(Cl)c1F` [Example 213] came in with a chromatographic logP of 4.8.
Turning to `Cc1nn2c(C(C)C)c(C(=O)N[C@H]3CCc4ccccc43)cnc2c1-c1cc(Cl)cc(C(F)(F)F)c1` [Example 317], the chromatographic logP is 6.07.

The next data set deals with C. elegans Slo-1a (Caenorhabditis elegans, UniProt Q95V25). The data set can be described thus: In vitro assay 1: C. elegans Slo-1a, action at a recombinant C. elegans CHO cell line (membrane potential measurement).
Chain of C. elegans Slo-1a (Q95V25 whole entry): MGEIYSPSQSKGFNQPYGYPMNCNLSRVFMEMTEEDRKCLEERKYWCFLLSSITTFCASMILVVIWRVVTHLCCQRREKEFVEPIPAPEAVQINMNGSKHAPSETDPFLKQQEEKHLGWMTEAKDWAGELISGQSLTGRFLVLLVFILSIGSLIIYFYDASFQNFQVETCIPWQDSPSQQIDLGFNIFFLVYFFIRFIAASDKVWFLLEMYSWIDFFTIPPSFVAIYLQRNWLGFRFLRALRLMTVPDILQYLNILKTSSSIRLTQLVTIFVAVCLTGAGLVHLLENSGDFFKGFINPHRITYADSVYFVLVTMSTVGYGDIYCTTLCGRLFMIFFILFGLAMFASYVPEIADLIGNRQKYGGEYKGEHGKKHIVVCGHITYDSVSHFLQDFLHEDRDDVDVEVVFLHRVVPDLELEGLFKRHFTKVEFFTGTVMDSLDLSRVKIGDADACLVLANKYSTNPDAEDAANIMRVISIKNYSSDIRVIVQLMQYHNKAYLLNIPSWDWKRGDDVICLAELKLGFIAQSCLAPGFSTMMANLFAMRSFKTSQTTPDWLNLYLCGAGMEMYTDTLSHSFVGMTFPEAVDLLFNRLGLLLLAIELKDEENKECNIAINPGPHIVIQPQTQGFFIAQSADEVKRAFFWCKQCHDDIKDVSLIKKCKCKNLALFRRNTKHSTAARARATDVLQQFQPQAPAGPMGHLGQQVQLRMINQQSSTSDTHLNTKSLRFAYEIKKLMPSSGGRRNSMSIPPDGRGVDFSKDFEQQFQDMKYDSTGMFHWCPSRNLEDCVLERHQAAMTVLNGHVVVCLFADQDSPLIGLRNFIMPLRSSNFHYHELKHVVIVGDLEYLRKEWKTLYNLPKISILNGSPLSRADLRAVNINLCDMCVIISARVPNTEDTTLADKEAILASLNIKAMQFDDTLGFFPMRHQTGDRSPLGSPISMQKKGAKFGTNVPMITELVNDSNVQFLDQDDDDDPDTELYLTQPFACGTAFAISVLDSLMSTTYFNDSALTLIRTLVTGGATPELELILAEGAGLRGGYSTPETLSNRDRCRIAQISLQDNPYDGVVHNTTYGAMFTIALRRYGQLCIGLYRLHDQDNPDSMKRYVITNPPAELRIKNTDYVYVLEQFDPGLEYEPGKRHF
Conditions: not given
As to `Cc1nn2c(C(C)C)c(C(=O)N[C@H]3CCc4ccccc43)cnc2c1-c1cccc(N(C)C)c1` [Example 299], the EC50 was 15.8 nM.
On the same count and under the same terms, the result for `Cc1nn2c(C(C)C)c(C(=O)N[C@H]3CCOc4ccccc43)cnc2c1-c1cccc(C(F)(F)F)c1` [Example 6] reads 12.6 nM.
`Cc1nn2c(C3CC3)c(C(=O)N[C@H]3CCOc4ccccc43)cnc2c1-c1c(Cl)cccc1Cl` [Example 467]: the EC50 was 0.398 nM.
Same read-out and setting: next, `Cc1nn2c(C(C)C)c(C(=O)N[C@H]3CCOc4ccccc43)cnc2c1-c1ccc(F)c(Cl)c1` [Example 186]: 15.8 nM; `Cc1nn2c(C(C)C)c(C(=O)N[C@H]3CCOc4ccccc43)cnc2c1-c1cccc(Cl)c1Cl` [Example 170]: 2 nM.
On the same count and under the same terms, the result for `COc1cc(Cl)cc(-c2c(C)nn3c(C(C)C)c(C(=O)N[C@H]4CCOc5ccccc54)cnc23)c1` [Example 403] reads 158 nM; that for `Cc1nn2c(C3CC3)c(C(=O)N[C@H]3CCOc4ccccc43)cnc2c1-c1cccc(N(C)C)c1` [Example 453], 2.51 nM.
With `COc1ccc(F)c(-c2c(C)nn3c(C(C)C)c(C(=O)N[C@H]4CCOc5ccccc54)cnc23)c1F` [Example 232], the EC50 is 5.01 nM.
The same measure, in the same setting: the result for `Cc1nn2c(C3CC3)c(C(=O)N[C@H]3CCc4ccccc43)cnc2c1-c1c(F)cccc1Cl` [Example 442] reads 2 nM.
The same measure, in the same setting: the result for `Cc1nn2c(C(C)C)c(C(=O)N[C@H]3CCOc4ccccc43)cnc2c1-c1c(F)cccc1Cl` [Example 130] reads 3.98 nM; that for `Cc1nn2c(C(C)C)c(C(=O)N[C@H]3CCOc4ccccc43)cnc2c1-c1ccc(F)c(Cl)c1F` [Example 213], 1.58 nM.
Same read-out and setting: next, `Cc1nn2c(C(C)C)c(C(=O)N[C@H]3CCc4ccccc43)cnc2c1-c1cc(Cl)cc(C(F)(F)F)c1` [Example 317]: 15.8 nM.
